Series [1] addresses Serine/threonine-protein kinase PAK 1 (Homo sapiens, UniProt Q13153). The series can be described thus: Inhibition of human recombinant N-terminal 6-His-tagged PAK1 kinase domain (249 to 545 residues) expressed in Escherichia coli BL21(DE3) assessed as phosphorylation of coumarin labeled FRET peptide substrate at Ser/Thr19 preincubated for 10 mins followed by ATP addition measured after 60 mins by Z'-LYTE assay.

Series [2] is filed under the species Homo sapiens. In words: Selectivity for human recombinant N-terminal 6-His-tagged PAK1 kinase domain (249 to 545 residues) over human recombinant PAK4 kinase domain.
Series [3] is filed under the species Homo sapiens. The series can be described thus: Selectivity for human recombinant N-terminal 6-His-tagged PAK1 kinase domain (249 to 545 residues) over LCK (unknown origin).
Series [4] has as its target Serine/threonine-protein kinase PAK 1/PAK 2 (Homo sapiens, UniProt Q13177+Q13153). In words: Inhibition of PAK1/2 in human EBC1 cells assessed as phosphorylation of MEK1 at serine 298 after 2 hrs by HTRF assay. It is filed as cell-based.
A short description of series [5]: Lipophilicity, log D of the compound at pH 7.4. It is filed as physicochemical. Particulars: buffer.
Series [6] can be described thus: Kinetic solubility of the compound at pH 7.4. The class given is physicochemical. Particulars: buffer, read-out: Kinetic_solubility.
Series [7] is described as follows: Apparent permeability across apical to basolateral side in MDCK cells at 10 uM after 60 mins. The class given is ADME, cell-based, Canis lupus familiaris. Particulars: dog.
Series [8] in a line: Efflux ratio of permeability across basolateral to apical side over apical to basolateral side in MDCK cells at 10 uM after 60 mins. The class given is ADME, cell-based, Canis lupus familiaris. To be noted: dog.
Series [9] can be described thus: Apparent permeability across basolateral to apical side in MDCK cells at 10 uM after 60 mins. The class given is ADME, cell-based, Canis lupus familiaris. Particulars: dog.

Converted amounts (≈) assume the structure as drawn.

Sequence of Serine/threonine-protein kinase PAK 1 (Q13153 whole entry, the tested form may be a part): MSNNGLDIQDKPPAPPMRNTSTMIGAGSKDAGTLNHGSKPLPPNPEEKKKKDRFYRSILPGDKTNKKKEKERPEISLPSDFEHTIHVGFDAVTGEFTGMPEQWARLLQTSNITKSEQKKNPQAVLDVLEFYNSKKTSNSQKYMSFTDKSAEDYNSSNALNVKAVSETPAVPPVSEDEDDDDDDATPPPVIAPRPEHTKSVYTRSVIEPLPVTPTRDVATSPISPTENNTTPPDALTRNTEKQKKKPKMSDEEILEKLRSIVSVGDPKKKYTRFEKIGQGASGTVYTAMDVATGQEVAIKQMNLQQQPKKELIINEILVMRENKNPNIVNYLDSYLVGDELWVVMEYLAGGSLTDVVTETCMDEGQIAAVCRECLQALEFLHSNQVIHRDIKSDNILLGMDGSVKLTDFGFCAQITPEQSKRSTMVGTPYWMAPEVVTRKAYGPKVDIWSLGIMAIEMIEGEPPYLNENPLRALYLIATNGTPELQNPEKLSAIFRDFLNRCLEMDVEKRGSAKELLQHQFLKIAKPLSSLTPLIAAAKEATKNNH

Broadly, the Ki is a measure of affinity in units of concentration, obtained from inhibition or displacement. Consider `CNc1ncc2cc(-c3ccc(N4CCCC4=O)cc3Cl)c(=O)n(CCCN)c2n1`, for which the Ki in series [1] came out at 89 nM. For the same molecule, the Selectivity ratio in the series listed under Homo sapiens [2] was above 33; in the series listed under Homo sapiens [3] it was 25.
For `CNc1ncc2cc(-c3ccc(N4CCN(C)C4=O)cc3Cl)c(=O)n(CCCN)c2n1`, the Selectivity ratio was above 52 in the series listed under Homo sapiens [2] and 10 in the series filed under Homo sapiens [3].
As a reminder, the IC50 is the concentration that inhibits the measured activity by half. One may read the logD as the decadic logarithm of the distribution of all forms, ionised or not, between an organic phase and buffer at a given pH. The low end stands for a more hydrophilic compound, the high end for a more lipophilic compound. The term Papp A→B denotes how fast a substance crosses the layer from the apical side. Broadly, the efflux ratio is a quotient of directional permeabilities that is used to spot active efflux. As to `CNc1ncc2cc(-c3ccc(-n4cccc(C)c4=O)cc3Cl)c(=O)n(CCOC3CN(C)C3)c2n1`, the Ki in series [1] is 4.4 nM. Moreover, in the series filed under Homo sapiens [3], the Selectivity ratio is 86. In addition, the IC50 in [4] was 88 nM. In addition, the logD in series [5] worked out at 0.63. Also, the solubility kinetic in series [6] turned out to be 71 µM (≈ 36 µg/mL). Also, the Papp A→B at 1 h, 10 µM in series [7] was found to be 0.2 ×10⁻⁶ cm/s. Besides, the efflux ratio at 1 h, 10 µM in series [8] is 26.
With `CNc1ncc2cc(-c3ccc(-n4cncc(C)c4=O)cc3Cl)c(=O)n(CCCN)c2n1`, the inhibitory constant (Ki) in series [1] turned out to be 6.7 nM. The Selectivity ratio in the series filed under Homo sapiens [2] was above 443; in the series listed under Homo sapiens [3], 282.
Taken in the same sequence, the figures for `CNc1ncc2cc(-c3ccc(-n4ccn(C)c4=O)cc3Cl)c(=O)n(CCCN)c2n1` were 13 nM, above 232 and 76.
As to `CNc1ncc2cc(-c3ccc(-n4cccc(C)c4=O)cc3Cl)c(=O)n(CCO)c2n1`, the Ki in series [1] is 17 nM. In addition, in the series listed under Homo sapiens [3], the Selectivity ratio was 63. Further, the IC50 in [4] is 930 nM. The logD in [5] was 2.2. Moreover, in series [6], the solubility kinetic came to 15 µM (≈ 6.57 µg/mL). In addition, the apical-to-basolateral permeability (Papp A→B) at 1 h, 10 µM in series [7] is 5.5 ×10⁻⁶ cm/s. For the same molecule, in series [8], the efflux ratio at 1 h, 10 µM was found to be 2.8.
On to `CCn1c(=O)c(-c2ccc(-n3cccc(C)c3=O)cc2Cl)cc2cnc(NC)nc21`, for which the Ki in series [1] was 8 nM. The Selectivity ratio in the series listed under Homo sapiens [3] is 53. Further, the IC50 in series [4] amounted to 340 nM. Besides, the logD in series [5] came out at 2.1. Besides, the solubility kinetic in series [6] is 2.5 µM (≈ 1.05 µg/mL). Besides, the Papp A→B at 1 h, 10 µM in [7] amounted to 28 ×10⁻⁶ cm/s. Further, the efflux ratio at 1 h, 10 µM in series [8] worked out at 0.4.
Regarding `CNc1ncc2cc(-c3ccccc3Cl)c(=O)n(CCCN)c2n1`, the Ki in [1] was 382 nM. Further, the values for the Selectivity ratio in the series filed under Homo sapiens [2] and in the series filed under Homo sapiens [3] were above 7.6 and 0.4, respectively.
For the molecule `COCCn1c(=O)c(-c2ccc(-n3cccc(C)c3=O)cc2Cl)cc2cnc(NC3COC3)nc21`, the inhibition constant (Ki) in [1] is 5.9 nM. Further, the Selectivity ratio in the series listed under Homo sapiens [3] is 158. Further, in series [4], the IC50 stood at 290 nM. In [5], this molecule came in with a logD of 1.9. In [6], the solubility kinetic is 38 µM (≈ 18.8 µg/mL). In addition, the Papp A→B at 1 h, 10 µM in series [7] came to 7.6 ×10⁻⁶ cm/s. Further, the efflux ratio at 1 h, 10 µM in series [8] was 2.
On to `CNc1ncc2cc(-c3ccc(-n4cccc(C)c4=O)cc3Cl)c(=O)n(CCOC)c2n1`, for which the Ki in [1] is 13 nM. In the series listed under Homo sapiens [3], the Selectivity ratio amounted to 38. Further, the IC50 in series [4] was found to be 450 nM. The molecule also had a logD in series [5] of 2.2. Moreover, the solubility kinetic in series [6] is 80 µM (≈ 36.2 µg/mL). The Papp A→B at 1 h, 10 µM in series [7] turned out to be 27 ×10⁻⁶ cm/s. The efflux ratio at 1 h, 10 µM in series [8] came to 0.5.
Take `CNc1ncc2cc(-c3ccc(-n4ccccc4=O)cc3Cl)c(=O)n(CCCN)c2n1`: in series [1], the Ki is 36 nM. In addition, the Selectivity ratio was above 82 in the series listed under Homo sapiens [2] and 86 in the series filed under Homo sapiens [3].
Consider `CNc1ncc2cc(-c3ccc(-n4ccnc(C)c4=O)cc3Cl)c(=O)n(CCCN)c2n1`, for which the Ki in series [1] amounted to 4.6 nM. Moreover, the Selectivity ratio in the series listed under Homo sapiens [2] was above 642; in the series filed under Homo sapiens [3], 429.
The Papp B→A is how fast a substance crosses the layer from the basolateral side. Take `CNc1ncc2cc(-c3ccc(-n4cccc(C)c4=O)cc3Cl)c(=O)n(CC(F)(F)CN)c2n1`: the Ki in series [1] is 9 nM. For the same molecule, the Selectivity ratio in the series filed under Homo sapiens [3] came to 56. Also, in series [4], the concentration for half-maximal inhibition (IC50) turned out to be 460 nM. Moreover, the logD in [5] came out at 1.8. In addition, the solubility kinetic in series [6] came to 51 µM (≈ 24.8 µg/mL). For the same molecule, the apical-to-basolateral permeability (Papp A→B) at 1 h, 10 µM in series [7] was determined as 8.4 ×10⁻⁶ cm/s. Also, the Papp B→A at 1 h, 10 µM in [9] worked out at 15.4 ×10⁻⁶ cm/s. Moreover, the efflux ratio at 1 h, 10 µM in [8] came out at 1.8.
Consider `Cc1nccn(-c2ccc(-c3cc4cnc(NC5COC5)nc4n(CC4CCNCC4(F)F)c3=O)c(Cl)c2)c1=O` (single isomer, unassigned; enantiomer 2), for which, in series [1], the Ki stood at 12 nM.
Turning to `CNc1ncc2cc(-c3ccc(-n4cccc(C)c4=O)cc3Cl)c(=O)n(CC3CCNCC3(F)F)c2n1` (racemic), the Ki in [1] stood at 2.7 nM. The Selectivity ratio in the series filed under Homo sapiens [3] amounted to 20. The half-inhibitory concentration (IC50) in series [4] is 78 nM. In series [5], this molecule had a logD of 0.9. In addition, in series [6], the solubility kinetic came to 115 µM (≈ 60.6 µg/mL). Further, the Papp A→B at 1 h, 10 µM in series [7] turned out to be 9.7 ×10⁻⁶ cm/s. In addition, the efflux ratio at 1 h, 10 µM in series [8] was found to be 1.3.
Consider `CNc1ncc2cc(-c3ccc(-c4cccc(C)n4)cc3Cl)c(=O)n(CCCN)c2n1`, for which, in series [1], the inhibition constant Ki was 3.3 nM. The values for the Selectivity ratio in the series filed under Homo sapiens [2] and in the series filed under Homo sapiens [3] were 449 and 53, respectively.
In the case of `CNc1ncc2cc(-c3ccc(-n4cccc(C)c4=O)cc3Cl)c(=O)n(CCCN)c2n1`, the Ki in series [1] was found to be 3.5 nM. Further, the Selectivity ratio was 517 in the series filed under Homo sapiens [2] and 221 in the series filed under Homo sapiens [3]. The IC50 in [4] was found to be 602 nM. In series [5], this molecule returned a logD of 0.05. In series [6], the solubility kinetic was 82 µM (≈ 37 µg/mL). In addition, the apparent permeability from apical to basolateral (Papp A→B) at 1 h, 10 µM in series [7] worked out at 0.1 ×10⁻⁶ cm/s. Besides, the Papp B→A at 1 h, 10 µM in [9] amounted to 0.33 ×10⁻⁶ cm/s. Besides, the efflux ratio at 1 h, 10 µM in [8] is 4.3.

The values are drawn from ChEMBL document CHEMBL3817726, “Chemically Diverse Group I p21-Activated Kinase (PAK) Inhibitors Impart Acute Cardiovascular Toxicity with a Narrow Therapeutic Window” (J Med Chem, 2016).
